According to patent US20240374550A1, “GINGERENONE A PRODRUGS AND METHODS OF USE” (The U.S.A., as Represented by the Secretary, Department of …, priority 2022, published 2024):
“Also recorded” adds a separate entry of the source.

How the values were obtained:
[1] = test system: senescent WI-38 fibroblasts; experiment: MTT cell viability assay, IR-induced senescent WI-38 fibroblasts; type: cell-based, human; settings: for senolytic activity (ability to selectively decrease cell viability of senescent cells): 72 h, ginger components at 100 μM, 6-shogaol 3.6 μM, 8-shogaol 33 μM, 6-gingerol 20 μM; for senescent cell viability: D+Q (dasatinib 250 nM + quercetin 10 μM), gingerenone A 20 μM, 6-shogaol 72.4 nM
Method: Cell culture and treatments: WI-38 human diploid fibroblasts (HDFs) were cultured in Dulbecco's modified Eagle's medium (DMEM) supplemented with 10% heat-inactivated fetal bovine serum (FBS), penicillin and streptomycin, and non-essential amino acids at 37° C. in a 5% CO2 incubator. HDFs were rendered senescent by exposure to 10 Gy of ionizing radiation (IR) and then cultured for an additional ten days. Proliferating and senescent WI-38 cells were seeded in triplicate overnight at 2×10^5 cells/well (in 6 well plates) to achieve ˜60% confluence by the next day. Cells were then treated with the extracts for times indicated. […]
MTT cell viability: The MTT assay (Bio Vision Milpitas, CA) was carried out following the manufacturer's protocol. Briefly, the media was gently removed from each well and 50 μl of serum-free medium+50 μl of Solution A were added to each well. The plates were incubated at 37° C. for MTT reduction into formazan for 3 h. Next, 150 μl Solution B was added to each well and the plate was covered with foil and shaken at 600 rpm for 15 min. The absorbance was measured at 590 nm using Enspire, Perkin Elmer Multimode plate reader. […]
WI-38 fibroblasts were rendered senescent by exposure to ionizing radiation (IR, 10 Gy) and cultured for an additional 10 days. […] Data represent the means and standard error from three biological replicates. The major components of ginger extract, namely 6-gingerol, 8-gingerol, 10-gingerol, 6-shogaol, 8-shogaol, gingerenone A, and zingerone, were screened for their ability to selectively decrease cell viability of senescent cells using the MTT assay (FIG. 10A).

[2] = test system: proliferating WI-38 fibroblasts; experiment: MTT cell viability assay, proliferating WI-38 fibroblasts; type: cell-based, human; settings: 48 h; D+Q (dasatinib 250 nM + quercetin 10 μM), gingerenone A 20 μM, 6-shogaol 72.4 nM
Method: Cell culture and treatments: WI-38 human diploid fibroblasts (HDFs) were cultured in Dulbecco's modified Eagle's medium (DMEM) supplemented with 10% heat-inactivated fetal bovine serum (FBS), penicillin and streptomycin, and non-essential amino acids at 37° C. in a 5% CO2 incubator. HDFs were rendered senescent by exposure to 10 Gy of ionizing radiation (IR) and then cultured for an additional ten days. Proliferating and senescent WI-38 cells were seeded in triplicate overnight at 2×10^5 cells/well (in 6 well plates) to achieve ˜60% confluence by the next day. Cells were then treated with the extracts for times indicated.
In 24-well plates, cells were treated with multiple dilutions (1:200 and 1:500) of Harpagophytum procumbens (Devil's Claw) (herb to menstruum ratio, 1:3), Uncaria tomentosa (Cat's Claw) (herb to menstruum ratio, 1:3), Zingiber officinale Rosc. […]
MTT cell viability: The MTT assay (Bio Vision Milpitas, CA) was carried out following the manufacturer's protocol. […] The absorbance was measured at 590 nm using Enspire, Perkin Elmer Multimode plate reader.
Four plant extracts were screened for senolytic activity, including extracts from Harpagophytum procumbens (Devil's Claw), Uncaria tomentosa (Cat's Claw), Zingiber officinale Rosc. […] In FIG. 8B, the impact on ginger extract on proliferating and senescent cells on cell survival was assessed by the MTT cell viability assay. […]

[3] = test system: SASP cytokines and chemokines secreted by senescent WI-38 fibroblasts; experiment: Secreted protein analysis (ELISA, Luminex multiplex, V-PLEX) of SASP factors; type: cell-based, human; settings: 24 h
Method: Secreted protein analysis-ELISA, Luminex Multiplex and V-PLEX: Media was collected at the earliest timepoint (24 h after treatments) to avoid cell death that could interfere with the assay. The media was centrifuged at 1000×g for 5 min to remove debris. The secretion of IL-6 was measured by the Quantikine ELISA Kit (R&D systems) and the expression of pro-inflammatory cytokines and chemokines [IL-6, TNFα, CCL2 (MCP-1), IL-8, IFNß] was also assessed by multiplex assays (customized Luminex plate, R&D) according to the manufacturer's instructions. The V-PLEX Plus Proinflammatory Panel 1 Human Kit and the Chemokine Panel 1 preparation and detection were carried out following the manufacturer's protocol (Mesoscale Diagnostics) using >80% confluency of proliferating or senescent cells on 24-well plates. Briefly, different concentrations of standards and samples were added to the plates, and they were incubated for 2 h on a microplate shaker. The plates were washed, and the corresponding detection antibody mixture was added to each well and incubated for 1 h with shaking. The plates were washed twice then Read buffer was added to each well. The plates were read on the MESO Quickplex SQ 120 (MSD, Rockville, MD) and protein concentrations were determined using MSD Discovery workbench 4.0. The effects of gingerenone A, 6-shogaol and D+Q on cytokines and chemokines that are known to be part of the senescence-associated secretory phenotype (SASP) were tested. WI-38 fibroblasts were rendered senescent by exposure to ionizing radiation (IR, 10 Gy) and cultured for an additional 10 days. Cells were then treated with gingerenone A (20 μM) and 6-shogaol (72.4 nM) and incubated for 24 h. CCL-2 (MCP-1) and IL-10 were measured using the Bio-plex (Multiplex); IL6 was measured using Quantikine IL-6 (R&D) (FIG. 12A). Data were normalized to cell number/total protein content. Data in graphs represent the means and standard error from three biological replicates. […] Ratios of cleaved pro-caspase 3 to total caspase 3, normalized to ACTB levels, are shown as relative to control proliferating cells. Cytokines (FIG. 13A) and chemokines (FIG. 13B) were measured using the V-plex panel (MSD) after treatment for 24 h with the indicated drugs. Relative secretion was measured as pg/ml vs control normalized on TE. Data in the graphs represent the means and standard error from three biological replicates.

[4] = test system: p53, Bcl-XL, cleaved caspase-3 in proliferating and senescent WI-38 fibroblasts; experiment: Western blot protein analysis (p53, Bcl-XL, cleaved caspase-3); type: cell-based, human; settings: 48 h, senescent cells
Method: Protein analysis: Cells were lysed in RIPA lysis buffer (Pierce, ThermoFisher) containing protease and phosphatase inhibitors (Roche) and incubated on ice for 10 min. The lysates were then sonicated for 5 min and centrifuged for 10 min at 4° C. to remove the insoluble fraction. The remaining supernatant was the whole-cell lysate. Lysates were separated by SDS-polyacrylamide gel electrophoresis (SDS-PAGE) and transferred onto nitrocellulose membranes (Biorad). Incubations with primary antibodies recognizing p21, p53, Beta-Actin (ACTB) (Santa Cruz Biotechnology), as well as caspase-3 (Abcam) and Bcl-XL (Cell Signaling) were followed by incubations with the appropriate secondary antibodies conjugated with horseradish peroxidase (GE Healthcare). Signals were developed using Enhanced Chemiluminescence (ECL) and acquired by using the ChemiDoc MP Imaging System (BioRad).
The effects of gingerenone A, 6-shogaol and D+Q on cytokines and chemokines that are known to be part of the senescence-associated secretory phenotype (SASP) were tested. WI-38 fibroblasts were rendered senescent by exposure to ionizing radiation (IR, 10 Gy) and cultured for an additional 10 days. Cells were then treated with gingerenone A (20 μM) and 6-shogaol (72.4 nM) and incubated for 24 h. CCL-2 (MCP-1) and IL-10 were measured using the Bio-plex (Multiplex); IL6 was measured using Quantikine IL-6 (R&D) (FIG. 12A). Data were normalized to cell number/total protein content. Data in graphs represent the means and standard error from three biological replicates. […] Ratios of cleaved pro-caspase 3 to total caspase 3, normalized to ACTB levels, are shown as relative to control proliferating cells. Cytokines (FIG. 13A) and chemokines (FIG. 13B) were measured using the V-plex panel (MSD) after treatment for 24 h with the indicated drugs. Relative secretion was measured as pg/ml vs control normalized on TE. Data in the graphs represent the means and standard error from three biological replicates.
To determine whether gingerenone A and 6-shogaol might influence the apoptotic pathway, their effect on the levels of cleaved caspase-3 (pro-apoptotic marker), and Bcl-XL (anti-apoptotic protein) (FIG. 12B) was tested.

[5] = test system: circulating cytokines/chemokines in serum; experiment: Chronic administration, serum cytokines/chemokines; type: in vivo, C57BL/6JN mice; settings: GinA 10 mg/kg/day, modGinA 27 mg/kg/day, 10 weeks
Method: (§1) A chronic administration of GinA (10 mg/kg/day; 1.8 mg/mL) and modGinA (27 mg/kg/day, 4.8 mg/mL) or vehicle (high oleic sunflower oil) was carried out daily for 10 weeks in C57BL/6JN mice (79-80 weeks old). The serum was analyzed for circulating levels of cytokines/chemokines during treatment (9th week) and 10 days after cessation of drug administration. […] FIGS. 16A and 16B show circulating levels of IL-5 in serum during treatment (9 weeks; FIG. 16A) and after treatment (FIG. 16B) with daily oral administration of 10 mg/kg of GinA or 27 mg/kg of modGinA. IL-5 was significant in post treatment using the unadjusted Kruskal-Wallace test between the three groups (vehicle, GinA and modGinA) and unadjusted unpaired t-test between either group and vehicle and during treatment using unadjusted unpaired t-test in the modGinA treatment group.

[6] = test system: circulating metabolites and lipid species in serum; experiment: Chronic administration, serum metabolomic and lipid analysis; type: in vivo, C57BL/6J male mice; settings: daily oral GinA 10 mg/kg or modGinA 27 mg/kg, at 9 weeks, compared to vehicle
Method: as §1
Additionally, modGinA administration increased circulating levels of multiple DHA- and EPA-containing lipid species, including phospholipids and cholesterol esters during treatment.

[7] = in vivo; settings: male, C57BL/6J, mouse, po, 10 mg/kg
Method: Gingerenone A Quantification: The analysis of Gingerenone A, EPA and DHA was accomplished using a Phenomencx® Security Guard® C18 column (4 x3 mm ID, Phenomenex, Torrance, CA) and a Waters™ Xbridge® C18 3.5 μm column (2.1 mm×100 mm, Waters Corporation, Milford, MA). The mobile phase consisted of 5 mM ammonium formate and 0.1% formic acid as component A and acetonitrile as component B. A linear gradient was run as follows: 0 min 10% B; 1 min 10% B, 5 min 90% B; 10 min 90% B; 10.1 min 10% B at a flow rate of 0.2 mL/min, with an oven temperature at 40° C. The total run time was 15 min per sample. […] For DHA, the TIS compound parameter settings (declustering potential, collision energy and cell exit potential) for MRM was −135 V, —14 V and −13 V and for naringenin MRM was −100 V, —24 V and −10 V, and MRM2 was −100V, —33 V and −10 V. The data were acquired and analyzed using Analyst version 1.4.2 (Applied Biosystems). The relative quantitation of gingerenone A, EPA and DHA was accomplished by using the area under the curves. […] For the quantitation of gingerenone A, a seven-point calibration curve (12.5 to 0.097 ng/ml) was carried out. […]
The peak areas in circulating gingerenone A levels were measured as described above in the Methods section.

CCCCC[C@H](O)CC(=O)CCc1ccc(O)c(OC)c1 [6-gingerol]
senolytic activity (ability to selectively decrease cell viability of senescent cells) [1]: only 6-shogaol and gingerenone A displayed senolytic activity

CCCCC/C=C/C(=O)CCc1ccc(O)c(OC)c1 [6-shogaol]
senescent cell viability ([1]; 48 h): moderate degree of cell death | senolytic activity (ability to selectively decrease cell viability of senescent cells) [1]: displayed senolytic activity | effect on proliferating cells [2]: significant increase | changes in any of the cytokines and chemokines measured ([3]; 72.4 nM): did not induce major changes | expression of anti-apoptotic protein Bcl-XL [4]: reduced | levels of pro-apoptotic protein cleaved caspase-3 [4]: increase

CCCCCCC[C@H](O)CC(=O)CCc1ccc(O)c(OC)c1 [8-gingerol]
senolytic activity (ability to selectively decrease cell viability of senescent cells) [1]: only 6-shogaol and gingerenone A displayed senolytic activity

CCCCCCC/C=C/C(=O)CCc1ccc(O)c(OC)c1 [8-shogaol]
senolytic activity (ability to selectively decrease cell viability of senescent cells) [1]: only 6-shogaol and gingerenone A displayed senolytic activity

CCCCCCCCC[C@H](O)CC(=O)CCc1ccc(O)c(OC)c1 [10-gingerol]
senolytic activity (ability to selectively decrease cell viability of senescent cells) [1]: only 6-shogaol and gingerenone A displayed senolytic activity

COc1cc(CC/C=C/C(=O)CCc2ccc(O)c(OC)c2)ccc1O [gingerenone A, Gingerenone A]
senescent cell viability relative to proliferating cells ([1]; 20 μM, 48 h, p=0.04): significant decrease; also recorded: significantly decreased | selectivity for senescent over proliferating cells ([1]; 48 h, 20 μM, compared to D+Q): higher selectivity | senescent cell viability ([1]; 48 h): significantly decreased | senolytic activity (ability to selectively decrease cell viability of senescent cells) [1]: displayed senolytic activity | effect on proliferating cells [2]: did not show any significant effect | level of IL-1β ([3]; 20 μM): increased | level of IL-13 ([3]; 20 μM): increased | level of IL-10 ([3]; 20 μM, multiplex ELISA (FIG. 12A)): increased | level of IL-10 ([3]; V-Plex (FIG. 13A)): unchanged | level of IL-8 ([3]; gingerenone A 20 μM, D+Q): increased | secreted level of CCL2 (MCP-1) ([3]; gingerenone A 20 μM, D+Q): reduced | secreted level of IL-6 ([3]; gingerenone A 20 μM, D+Q): reduced | secreted level of IP-10 ([3]; gingerenone A 20 μM, D+Q, V-plex): reduced | expression of anti-apoptotic protein Bcl-XL [4]: reduced | levels of pro-apoptotic protein cleaved caspase-3 [4]: increase | serum IL-5 ([5]; post treatment, unadjusted unpaired t-test vs vehicle): reduced | serum IL-2 ([5]; ten days after termination): reduced | serum concentration of beta-alanine [6]: did not increase | serum concentration of choline [6]: did not increase | AUC [7]: 1.25 ng·h/mL

COc1cc(CCC(C)=O)ccc1O [zingerone]
senolytic activity (ability to selectively decrease cell viability of senescent cells) [1]: only 6-shogaol and gingerenone A displayed senolytic activity
